Results: US20030229140A1, “Herbal molecule as potential anti-leukemic drug” (priority 2002, published 2003)

Experiments:
[1] = tested on: Promonocytic cell line (U937); assay: Incubation of CD33+ promonocytic cell line U937 with CA/PCQ, viable cell count; format: cell-based; conditions: for % Inhibition of cell growth (After 3 days of incubation): 2×10^5 cells per ml per well
Protocol: Culture of Promonocytic cell line U937. […] This cell line is CD33^+. Incubation of CD33^+ cell line U937 with CA. […] Cells were then washed and counted for viability.

[2] = tested on: Erythroleukemic cell line (K562); assay: Incubation of CD33- erythroleukemic cell line K562 with CA/PCQ, viable cell count; format: cell-based; conditions: for % Inhibition of cell growth (After 3 days of incubation): 2×10^5 cells per ml per well
Source text: This cell line was collected from American Type Culture Collection (ATCC), VA, USA. This cell line is […]. […] Cells were then washed and counted for viability.

[3] = tested on: leukemic cells; assay: Biological activity (destruction of leukemic cells) of Piper betel fractions and HPLC peaks; format: cell-based; conditions: fractions, zones and HPLC peaks of Piper betel leaf extract
Protocol: Collected material was examined for biological activity i.e. destruction of leukemic cells. […] 10 gm of above-mentioned material was loaded on Sephadex LH-20 column and chromatographed with water, water-methanol (1:1) and methanol as eluent. Three different fractions thus obtained from three different solvent systems were separately checked for biological activity. […] The column was equilibrated with methanol-water-acetic acid (23:76:1), flow rate was maintained at 1.0 ml per min and peaks were identified at 280 nm. According to the retention time (RE) different peaks could be divided into three zones, ZA/ZB and ZC (FIG. 1). ZA had 4 major peaks whereas ZB had very small to moderate 10 peaks and ZC had two distinct peaks. It was convenient to observe biological activity of three zones AA, ZB and ZC, which were separately tested on leukemia cells for destructive activity.

[4] = tested on: Normal PBMC; assay: Growth inhibition of normal individuals' PBMC by CA/PCQ; format: cell-based, human; conditions: Normal individual's PBMC, 3 days, 2×10^5 cells per ml per well
Source text: Preparation of peripheral blood mononuclear cells (PBMC) from normal individuals. Whole blood was collected and mononuclear cells were separated by Ficoll/Hypaque density gradient centrifugation.

[5] = tested on: CML patient's PBMC; assay: Incubation of CML patient's PBMC (leukemic cells) with CA/PCQ, viable cell count; format: cell-based, human; conditions: for % Inhibition of cell growth (After 3 days of incubation): CML patient's leukemic cells, 2×10^5 cells per ml per well
Protocol: Whole blood (10 ml each) was drawn from previously diagnosed myeloid leukemic patients, one patient was diagnosed as AML and the other one was diagnosed as CML. Mononuclear cells were separated by Ficoll/hypaque density gradient centrifugation. […] Cells were then washed and counted for viability.

[6] = tested on: CD33+ myeloid cells; conditions: earlier patent filing; cited from earlier work

Structure (SMILES): O=C(C=Cc1ccc(O)cc1)OC1CC(O)(C(=O)O)CC(O)C1O (stereo not shown) [PCQ, 3-o-p-Coumaryl quinic acid]
- % Inhibition of cell growth (After 3 days of incubation) ([1]; U937, 25.0 μg/ml): 2.08%
- % Inhibition of cell growth (After 3 days of incubation) ([1]; U937, 50.0 μg/ml): 4.17%
- growth inhibition of leukemic cell lines ([1]; U937, 2×10^6/ml/well, 25 μg/ml of PCQ): up to 2.08%
- % Inhibition of cell growth (After 3 days of incubation) ([2]; K562, 25.0 μg/ml): 4.00%
- % Inhibition of cell growth (After 3 days of incubation) ([2]; K562, 50.0 μg/ml): 8.00%
- growth inhibition of leukemic cell lines ([2]; K562, 2×10^6/ml/well, 25 μg/ml): up to 4%
- biological activity i.e. destruction of leukemic cells (in words) [3]: demonstrated considerable activity
- % Inhibition of cell growth (After 3 days of incubation) ([4]; 25.0 μg/ml): 0.00%
- % Inhibition of cell growth (After 3 days of incubation) ([4]; 50.0 μg/ml): 1.67%
- growth inhibition of leukemic cell lines ([5]; CML leukemic cells, 2×10^6/ml/well, 25 μg/ml of PCQ): up to 2.38%
- % Inhibition of cell growth (After 3 days of incubation) ([5]; 25.0 μg/ml): 2.38%
- % Inhibition of cell growth (After 3 days of incubation) ([5]; 50.0 μg/ml): 4.76%
- CD33+ myeloid cells destruction (in words) [6]: showed CD33+myeloid cells destruction
